Measured values: US20260262643A1, “HERBICIDAL BENZOXAZINES” (FMC CORPORATION, priority 2022, published 2026)

Legend:
[1] = tested on: blackgrass; assay: Test A preemergence; type: in vivo, Alopecurus myosuroides
Outline: (§1)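 Plants were grown in loam and sand and treated preemergence or postemergence (one- to two-leaf stage, 2–10 cm) with compound in solvent plus surfactant. Response was scored against untreated controls after 10 greenhouse days, where 0 means no effect and 100 complete control.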

[2] = tested on: corn; assay: Test A preemergence; type: in vivo, Zea mays
Outline: as §1

[3] = tested on: foxtail, giant; assay: Test A preemergence; type: in vivo, Setaria faberi
Outline: as §1

[4] = tested on: goosegrass; assay: Test A preemergence; type: in vivo, Eleusine indica
Outline: as §1

[5] = tested on: kochia; assay: Test A preemergence; type: in vivo, Bassia scoparia
Outline: as §1

[6] = tested on: oat, wild; assay: Test A preemergence; type: in vivo, Avena fatua
Outline: as §1

[7] = tested on: pigweed, palmer; assay: Test A preemergence; type: in vivo, Amaranthus palmeri
Outline: as §1

[8] = tested on: ragweed; assay: Test A preemergence; type: in vivo, Ambrosia artemisiifolia
Outline: as §1

[9] = tested on: ryegrass, Italian; assay: Test A preemergence; type: in vivo, Lolium multiflorum
Outline: as §1

[10] = tested on: soybean; assay: Test A preemergence; type: in vivo, Glycine max
Outline: as §1

[11] = tested on: wheat; assay: Test A preemergence; type: in vivo, Triticum aestivum
Outline: as §1

[12] = tested on: blackgrass; assay: Test A postemergence; type: in vivo, Alopecurus myosuroides
Outline: as §1

[13] = tested on: corn; assay: Test A postemergence; type: in vivo, Zea mays
Outline: as §1

[14] = tested on: foxtail, giant; assay: Test A postemergence; type: in vivo, Setaria faberi
Outline: as §1

[15] = tested on: goosegrass; assay: Test A postemergence; type: in vivo, Eleusine indica
Outline: as §1

[16] = tested on: kochia; assay: Test A postemergence; type: in vivo, Bassia scoparia
Outline: as §1

[17] = tested on: oat, wild; assay: Test A postemergence; type: in vivo, Avena fatua
Outline: as §1

[18] = tested on: pigweed, palmer; assay: Test A postemergence; type: in vivo, Amaranthus palmeri
Outline: as §1

[19] = tested on: ragweed; assay: Test A postemergence; type: in vivo, Ambrosia artemisiifolia
Outline: as §1

[20] = tested on: ryegrass, Italian; assay: Test A postemergence; type: in vivo, Lolium multiflorum
Outline: as §1

[21] = tested on: soybean; assay: Test A postemergence; type: in vivo, Glycine max
Outline: as §1

[22] = tested on: wheat; assay: Test A postemergence; type: in vivo, Triticum aestivum
Outline: as §1

[23] = tested on: galium; assay: Test A postemergence; type: in vivo, Galium aparine
Outline: as §1

[24] = tested on: horseweed; assay: Test A postemergence; type: in vivo, Erigeron canadensis
Outline: as §1

[25] = tested on: barnyardgrass; assay: Test B flooded paddy test; type: in vivo, Echinochloa crus-galli; details: 250 g ai/ha, Flood, 13 days, 0 to 100 scale (0 no effect, 100 complete control)
Outline: (§2)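 Two-leaf plants, 3 cm flood, in-water application, 13-day greenhouse hold, visual 0–100 rating vs untreated checks.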

[26] = tested on: ducksalad; assay: Test B flooded paddy test; type: in vivo, Heteranthera limosa; details: 250 g ai/ha, Flood, 13 days, 0 to 100 scale (0 no effect, 100 complete control)
Outline: as §2

[27] = tested on: rice; assay: Test B flooded paddy test; type: in vivo, Oryza sativa; details: 250 g ai/ha, Flood, 13 days, 0 to 100 scale (0 no effect, 100 complete control)
Outline: as §2

[28] = tested on: sedge, umbrella; assay: Test B flooded paddy test; type: in vivo, Cyperus difformis; details: 250 g ai/ha, Flood, 13 days, 0 to 100 scale (0 no effect, 100 complete control)
Outline: as §2

[29] = 125 g ai/ha, visual injury after 10 days, 0 to 100 scale, 0 is no effect, 100 is complete control
[30] = 500 g ai/ha, 0 to 100 scale (0 no effect, 100 complete control), 10 days
[31] = 125 g ai/ha, postemergence, 10 days, visual injury, 0 to 100 scale (0 no effect, 100 complete control)
[32] = 500 g ai/ha, Postemergence, 0 to 100 scale
[33] = 500 g ai/ha, postemergence, 10 days, visual injury, 0 to 100 scale (0 no effect, 100 complete control)

In the case of CCCc1ncn(-c2cccc(C(=O)N3C[C@H](C)Oc4c(C)cccc43)c2)n1 [Compound 72], the “Plant response rating, Blackgrass” value [1, 29] is reported as 40, the “Plant response rating, Blackgrass” value [1, 30] is reported as 70 and the “Plant response rating, Corn” value [2, 29] is reported as 30. For the same molecule, the “Plant response rating, Corn” value [2, 30] was 50, the “Plant response rating, Foxtail, Giant” value [3, 29] was 100 and the “Plant response rating, Foxtail, Giant” value [3, 30] was 100. The “Plant response rating, Goosegrass” value [4, 29] was 90, the “Plant response rating, Goosegrass” value [4, 30] was 100 and the “Plant response rating, Kochia” value [5, 29] was 30. The “Plant response rating, Kochia” value [5, 30] was 80, the “Plant response rating, Oat, Wild” value [6, 29] was 10 and the “Plant response rating, Oat, Wild” value [6, 30] was 90. For the same molecule, the “Plant response rating, Pigweed, Palmer” value [7, 29] was 70, the “Plant response rating, Pigweed, Palmer” value [7, 30] was 100 and the “Plant response rating, Ragweed” value [8, 29] was 0. For the same molecule, the “Plant response rating, Ragweed” value [8, 30] was 0, the “Plant response rating, Ryegrass, Italian” value [9, 29] was 100 and the “Plant response rating, Ryegrass, Italian” value [9, 30] was 100. The “Plant response rating, Soybean” value [10, 29] was 30, the “Plant response rating, Soybean” value [10, 30] was 60 and the “Plant response rating, Wheat” value [11, 29] was 0. The “Plant response rating, Wheat” value [11, 30] was 30, the “Plant response rating, Blackgrass” value [12, 31] was 0 and the “Plant response rating, Blackgrass” value [12, 32] was 80. For the same molecule, the “Plant response rating, Corn” value [13, 31] was 30, the “Plant response rating, Corn” value [13, 33] was 90 and the “Plant response rating, Foxtail, Giant” value [14, 31] was 10. The “Plant response rating, Foxtail, Giant” value [14, 33] was 50, the “Plant response rating, Goosegrass” value [15, 31] was 50 and the “Plant response rating, Goosegrass” value [15, 33] was 90. For the same molecule, the “Plant response rating, Kochia” value [16, 31] was 70, the “Plant response rating, Kochia” value [16, 33] was 90 and the “Plant response rating, Oat, Wild” value [17, 33] was 50. For the same molecule, the “Plant response rating, Pigweed, Palmer” value [18, 33] was 70, the “Plant response rating, Ragweed” value [19, 33] was 50 and the “Plant response rating, Ryegrass, Italian” value [20, 33] was 70. The “Plant response rating, Soybean” value [21, 33] was 100, the “Plant response rating, Wheat” value [22, 33] was 30 and the “Plant response rating, Galium” value [23, 31] was 70. For the same molecule, the “Plant response rating, Galium” value [23, 33] was 100, the “Plant response rating, Horseweed” value [24, 31] was 20 and the “Plant response rating, Horseweed” value [24, 33] was 50. For the same molecule, the “Plant response rating, Barnyardgrass” value [25] was 15, the “Plant response rating, Ducksalad” value [26] was 55 and the “Plant response rating, Rice” value [27] was 0. The “Plant response rating, Sedge, Umbrella” value [28] was 15.

With Cc1cccc2c1O[C@@H](C)CN2C(=O)c1cccc(-n2cnc(C3CC3)n2)c1 [Compound 54] the “Plant response rating, Blackgrass” value [1, 29] was 40, the “Plant response rating, Blackgrass” value [1, 30] was 80 and the “Plant response rating, Corn” value [2, 29] was 30. For the same molecule, the “Plant response rating, Corn” value [2, 30] was 60, the “Plant response rating, Foxtail, Giant” value [3, 29] was 90 and the “Plant response rating, Foxtail, Giant” value [3, 30] was 100. For the same molecule, the “Plant response rating, Goosegrass” value [4, 29] was 90, the “Plant response rating, Goosegrass” value [4, 30] was 100 and the “Plant response rating, Kochia” value [5, 29] was 80. The “Plant response rating, Kochia” value [5, 30] was 90, the “Plant response rating, Oat, Wild” value [6, 29] was 20 and the “Plant response rating, Oat, Wild” value [6, 30] was 50. For the same molecule, the “Plant response rating, Pigweed, Palmer” value [7, 29] was 60, the “Plant response rating, Pigweed, Palmer” value [7, 30] was 100 and the “Plant response rating, Ragweed” value [8, 29] was 0. For the same molecule, the “Plant response rating, Ragweed” value [8, 30] was 0, the “Plant response rating, Ryegrass, Italian” value [9, 29] was 70 and the “Plant response rating, Ryegrass, Italian” value [9, 30] was 100. For the same molecule, the “Plant response rating, Soybean” value [10, 29] was 0, the “Plant response rating, Soybean” value [10, 30] was 40 and the “Plant response rating, Wheat” value [11, 29] was 20. For the same molecule, the “Plant response rating, Wheat” value [11, 30] was 30, the “Plant response rating, Blackgrass” value [12, 31] was 0 and the “Plant response rating, Blackgrass” value [12, 32] was 50. The “Plant response rating, Corn” value [13, 31] was 30, the “Plant response rating, Corn” value [13, 32] was 40 and the “Plant response rating, Foxtail, Giant” value [14, 31] was 70. The “Plant response rating, Foxtail, Giant” value [14, 32] was 90, the “Plant response rating, Goosegrass” value [15, 31] was 40 and the “Plant response rating, Goosegrass” value [15, 32] was 50. For the same molecule, the “Plant response rating, Kochia” value [16, 31] was 80, the “Plant response rating, Kochia” value [16, 32] was 90 and the “Plant response rating, Oat, Wild” value [17, 31] was 20. The “Plant response rating, Oat, Wild” value [17, 32] was 40, the “Plant response rating, Pigweed, Palmer” value [18, 31] was 50 and the “Plant response rating, Pigweed, Palmer” value [18, 32] was 60. The “Plant response rating, Ragweed” value [19, 31] was 0, the “Plant response rating, Ragweed” value [19, 32] was 50 and the “Plant response rating, Ryegrass, Italian” value [20, 31] was 30. The “Plant response rating, Ryegrass, Italian” value [20, 32] was 60, the “Plant response rating, Soybean” value [21, 31] was 100 and the “Plant response rating, Soybean” value [21, 32] was 100. The “Plant response rating, Wheat” value [22, 31] was 20, the “Plant response rating, Wheat” value [22, 32] was 40 and the “Plant response rating, Galium” value [23, 31] was 100. For the same molecule, the “Plant response rating, Galium” value [23, 32] was 100, the “Plant response rating, Horseweed” value [24, 31] was 0 and the “Plant response rating, Horseweed” value [24, 32] was 20. For the same molecule, the “Plant response rating, Barnyardgrass” value [25] was 25, the “Plant response rating, Ducksalad” value [26] was 30 and the “Plant response rating, Rice” value [27] was 30. For the same molecule, the “Plant response rating, Sedge, Umbrella” value [28] was 90.

For Cc1cccc2c1O[C@@H](C)CN2C(=O)c1cccc(-n2ncnc2C(C)C)c1 [Compound 56], the “Plant response rating, Blackgrass” value [1, 29] was 0, the “Plant response rating, Blackgrass” value [1, 30] was 0 and the “Plant response rating, Corn” value [2, 29] was 0. The “Plant response rating, Corn” value [2, 30] was 0, the “Plant response rating, Foxtail, Giant” value [3, 29] was 0 and the “Plant response rating, Foxtail, Giant” value [3, 30] was 0. For the same molecule, the “Plant response rating, Goosegrass” value [4, 29] was 0, the “Plant response rating, Goosegrass” value [4, 30] was 0 and the “Plant response rating, Kochia” value [5, 29] was 0. The “Plant response rating, Kochia” value [5, 30] was 0, the “Plant response rating, Oat, Wild” value [6, 29] was 0 and the “Plant response rating, Oat, Wild” value [6, 30] was 0. The “Plant response rating, Pigweed, Palmer” value [7, 29] was 0, the “Plant response rating, Pigweed, Palmer” value [7, 30] was 0 and the “Plant response rating, Ragweed” value [8, 29] was 0. The “Plant response rating, Ragweed” value [8, 30] was 0, the “Plant response rating, Ryegrass, Italian” value [9, 29] was 0 and the “Plant response rating, Ryegrass, Italian” value [9, 30] was 0. The “Plant response rating, Soybean” value [10, 29] was 0, the “Plant response rating, Soybean” value [10, 30] was 0 and the “Plant response rating, Wheat” value [11, 29] was 0. The “Plant response rating, Wheat” value [11, 30] was 0, the “Plant response rating, Blackgrass” value [12, 31] was 0 and the “Plant response rating, Blackgrass” value [12, 32] was 0. For the same molecule, the “Plant response rating, Corn” value [13, 31] was 0, the “Plant response rating, Corn” value [13, 32] was 0 and the “Plant response rating, Foxtail, Giant” value [14, 31] was 0. The “Plant response rating, Foxtail, Giant” value [14, 32] was 0, the “Plant response rating, Goosegrass” value [15, 31] was 0 and the “Plant response rating, Goosegrass” value [15, 32] was 0. For the same molecule, the “Plant response rating, Kochia” value [16, 31] was 0, the “Plant response rating, Kochia” value [16, 32] was 0 and the “Plant response rating, Oat, Wild” value [17, 31] was 0. The “Plant response rating, Oat, Wild” value [17, 32] was 0, the “Plant response rating, Pigweed, Palmer” value [18, 31] was 0 and the “Plant response rating, Pigweed, Palmer” value [18, 32] was 0. The “Plant response rating, Ragweed” value [19, 31] was 0, the “Plant response rating, Ragweed” value [19, 32] was 0 and the “Plant response rating, Ryegrass, Italian” value [20, 31] was 0. For the same molecule, the “Plant response rating, Ryegrass, Italian” value [20, 32] was 0, the “Plant response rating, Soybean” value [21, 31] was 0 and the “Plant response rating, Soybean” value [21, 32] was 10. The “Plant response rating, Wheat” value [22, 31] was 0, the “Plant response rating, Wheat” value [22, 32] was 0 and the “Plant response rating, Galium” value [23, 31] was 0. For the same molecule, the “Plant response rating, Galium” value [23, 32] was 0, the “Plant response rating, Horseweed” value [24, 31] was 0 and the “Plant response rating, Horseweed” value [24, 32] was 0. For the same molecule, the “Plant response rating, Barnyardgrass” value [25] was 0, the “Plant response rating, Ducksalad” value [26] was 0 and the “Plant response rating, Rice” value [27] was 0. The “Plant response rating, Sedge, Umbrella” value [28] was 0.
